Measurements from the supplement of paper PMC10627819.

Tests used:
S. aureus Newman [1] = test: fitness (endpoint OD595 vs no drug) (fraction); higher = more growth
How it was run: (§1)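 Bacterial growth was followed in 384-well plates seeded at OD595 0.01, with 30 µl per well, or 55 µl for S. pneumoniae, in TSB, LB Lennox or CY at 37 °C. OD595 was read every 30 min for 14 h, and each reading had the first reading subtracted as background. Fitness is the background-corrected optical density at entry into stationary phase divided by the robust mean of the no-drug control wells. This ratio is capped at 1.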

S. pneumoniae D39V [2] = test: as above
How it was run: as §1

B. subtilis 168 [3] = test: Bliss interaction score (quartile over a dose matrix) (fitness difference); higher = more antagonism (negative = synergy)
How it was run: (§2)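 The Bliss score subtracts expected fitness, the product of the single-drug fitness values, from observed fitness. Fitness is plate-normalised OD595 at entry into stationary phase, relative to the robust no-drug mean and capped at 1, with single-drug fitness inferred from combinations. Summaries are quartiles over technical, biological and donor/recipient replicates.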

S. aureus DSM 20231 = test: as above
How it was run: as §2

S. aureus Newman [4] = test: as above
How it was run: as §2

S. pneumoniae D39V [5] = test: as above
How it was run: as §2

B. subtilis 168 [6] = test: fitness (endpoint OD595 vs no drug) (fraction); higher = more growth
How it was run: as §1
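Wherever Bliss interaction score (quartile over a dose matrix) is given: first quartile when negative (synergy) and third quartile when positive (antagonism).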

CC1=C(C(=O)O)N2C(=O)[C@@H](NC(=O)[C@H](N)c3ccccc3)[C@H]2SC1 [Cephalexin] + Cn1nnc(-c2ccc(-c3ccc(N4C[C@H](CO)OC4=O)cc3F)cn2)n1 [Tedizolid]
fitness
Conditions | first compound 0.25 µg/mL | first compound 0.5 µg/mL | first compound 1 µg/mL | first compound 2 µg/mL | first compound 4 µg/mL
S. aureus Newman [1], partner 0.0625 µg/mL | 0.965 | 0.999 | 0.967 | – | –
S. aureus Newman [1], partner 0.125 µg/mL | 0.914 | 0.901 | 0.924 | – | –
S. pneumoniae D39V [2], partner 0.03125 µg/mL | – | – | 0.919 | 0.391 | 0.0118
S. pneumoniae D39V [2], partner 0.0625 µg/mL | – | – | 0.928 | 0.53 | 0.113
S. pneumoniae D39V [2], partner 0.125 µg/mL | – | – | 0.778 | 0.529 | 0.115

fitness, S. pneumoniae D39V [2], one replicate
Conditions | first compound 0.125 µg/mL | first compound 0.25 µg/mL | first compound 0.5 µg/mL
partner 0.125 µg/mL | 0.857 | 0.887 | 0.943
partner 0.25 µg/mL | 0.762 | 0.775 | 0.793
partner 0.5 µg/mL | 0.282 | 0.332 | 0.359

Conditions | Bliss interaction score
B. subtilis 168 [3] | -0.0471
S. aureus DSM 20231 | -0.121
S. aureus Newman [4] | 0.0857
S. pneumoniae D39V [5] | 0.304

CNC(C)C1CCC(N)C(OC2C(N)CC(N)C(OC3OCC(C)(O)C(NC)C3O)C2O)O1 (stereo unspecified) [Gentamicin] + CCCCCCCCCC(=O)N[C@@H]1[C@H]([C@@H]([C@H](O[C@H]1OC2=C3C=C4C=C2OC5=C(C=C(C=C5)[C@H]([C@H]6C(=O)N[C@@H](C7=C(C(=CC(=C7)O)OC8[C@H]([C@H]([C@@H]([C@H](O8)CO)O)O)O)C9=C(C=CC(=C9)[C@H](C(=O)N6)NC(=O)[C@@H]4NC(=O)[C@@H]1C2=CC(=CC(=C2)OC2=C(C=CC(=C2)[C@H](C(=O)N[C@H](CC2=CC(=C(O3)C=C2)Cl)C(=O)N1)N)O)O)O)C(=O)O)O[C@H]1[C@@H]([C@H]([C@@H]([C@H](O1)CO)O)O)NC(=O)C)Cl)CO)O)O [Teicoplanin]
fitness, S. aureus Newman [1], one replicate, main component drawn
Conditions | first compound 0.375 µg/mL | first compound 0.75 µg/mL | first compound 1 µg/mL | first compound 1.5 µg/mL | first compound 2 µg/mL | first compound 4 µg/mL
partner 0.1562 µg/mL | ≥ 1 | ≥ 1 | – | ≥ 1 | – | –
partner 0.3125 µg/mL | ≥ 1 | ≥ 1 | – | ≥ 1 | – | –
partner 0.62 µg/mL | – | – | 0.748 | – | 0.37 | 0.0704
partner 0.625 µg/mL | 0.861 | 0.851 | – | 0.875 | – | –
partner 1.24 µg/mL | – | – | 0.616 | – | 0.0206 | 0.0307
partner 2.48 µg/mL | – | – | 0.0707 | – | 0.0793 | 0.0765

fitness, S. aureus Newman [1], main component drawn
Conditions | first compound 0.5 µg/mL | first compound 1 µg/mL | first compound 2 µg/mL
partner 0.1562 µg/mL | ≥ 1 | ≥ 1 | ≥ 1
partner 0.3125 µg/mL | ≥ 1 | ≥ 1 | ≥ 1
partner 0.625 µg/mL | ≥ 1 | ≥ 1 | ≥ 1

main component drawn
Conditions | Bliss interaction score
B. subtilis 168 [3] | -0.13
S. aureus DSM 20231 | -0.0694
S. aureus Newman [4] | -0.0337
S. pneumoniae D39V [5] | 0.0694

CC[C@H]1OC(=O)[C@H](C)[C@@H](O[C@H]2C[C@@](C)(OC)[C@@H](O)[C@H](C)O2)[C@H](C)[C@@H](O[C@@H]2O[C@H](C)C[C@H](N(C)C)[C@H]2O)[C@](C)(O)C[C@@H](C)CN(C)[C@H](C)[C@@H](O)[C@]1(C)O [Azithromycin] + O=C(O)c1cn(C2CC2)c2cc(N3CCNCC3)c(F)cc2c1=O [Ciprofloxacin]
fitness
Conditions | first compound 0.125 µg/mL | first compound 0.25 µg/mL | first compound 0.5 µg/mL
B. subtilis 168 [6], partner 0.0098 µg/mL | – | 0.886 | –
B. subtilis 168 [6], partner 0.0195 µg/mL | – | 0.781 | 0.702
S. aureus Newman [1], partner 0.0375 µg/mL | 0.684 | 0.697 | 0.547
S. aureus Newman [1], partner 0.075 µg/mL | 0.631 | 0.697 | 0.581

B. subtilis 168 [6], first compound 2 µg/mL, one replicate
Conditions | fitness
partner 0.0098 µg/mL | 0.428
partner 0.0195 µg/mL | 0.279
partner 0.039 µg/mL | 0.258

Conditions | Bliss interaction score
B. subtilis 168 [3] | 0.228
S. aureus DSM 20231 | 0.105
S. aureus Newman [4] | 0.102
S. pneumoniae D39V [5] | -0.0524

CC[C@H]1OC(=O)[C@H](C)[C@@H](O[C@H]2C[C@@](C)(OC)[C@@H](O)[C@H](C)O2)[C@H](C)[C@@H](O[C@@H]2O[C@H](C)C[C@H](N(C)C)[C@H]2O)[C@](C)(O)C[C@@H](C)CN(C)[C@H](C)[C@@H](O)[C@]1(C)O [Azithromycin] + CC(C1CCC(C(O1)OC2C(CC(C(C2O)OC3C(C(C(CO3)(C)O)NC)O)N)N)N)NC [Gentamicin]
fitness, main component drawn
Conditions | first compound 0.125 µg/mL | first compound 0.25 µg/mL | first compound 0.5 µg/mL
B. subtilis 168 [6], partner 0.0625 µg/mL | – | 0.847 | –
S. aureus Newman [1], partner 0.5 µg/mL | 0.879 | 0.851 | 0.742
S. aureus Newman [1], partner 1 µg/mL | 0.899 | 0.901 | 0.827
S. aureus Newman [1], partner 2 µg/mL | 0.942 | 0.958 | 0.79

fitness, one replicate, main component drawn
Conditions | partner 0.0625 µg/mL | partner 0.125 µg/mL | partner 0.25 µg/mL | partner 0.375 µg/mL | partner 0.75 µg/mL | partner 1.5 µg/mL
B. subtilis 168 [6], first compound 2 µg/mL | 0.482 | 0.322 | 0.337 | – | – | –
S. aureus Newman [1], first compound 0.125 µg/mL | – | – | – | 0.946 | 0.936 | 0.954
S. aureus Newman [1], first compound 0.25 µg/mL | – | – | – | ≥ 1 | 0.943 | 0.911
S. aureus Newman [1], first compound 0.5 µg/mL | – | – | – | 0.711 | 0.62 | 0.571

main component drawn
Conditions | Bliss interaction score
B. subtilis 168 [3] | 0.305
S. aureus DSM 20231 | 0.106
S. aureus Newman [4] | 0.118
S. pneumoniae D39V [5] | -0.0659
